Read-outs that look alike come from different tables or passages of the source. Marks after values point to notes of the source that are not given here.
Columns and labels:
HCMV AD169 strain = assay: Inhibitory effect on HCMV in vitro (MEC, therapeutic index); assay type: cell-based, human cytomegalovirus; conditions: HCMV AD169, 100 times TCD50, 10 days of culture
Experimental: Human embryonic lung fibroblast cell strain (purchased from Sino Best Biological Technology Co., Ltd.). The cells were cultured and subcultured according to the conventional method.
HCMV AD169 strain was purchased from American Type Culture Collection (ATCC).
Cells were inoculated in a 96-well plate, allowed to grow into monolayers, and inoculated with a virus challenge of 100 times TCD50. Starting from TD0, each drug was diluted stepwise according to 10-fold gradient to prepare 5 concentrations, with 4 wells set for each concentration. In addition, 4 wells of normal cell control and 4 wells of virus control were set.

[1] = tested on: Human embryonic lung fibroblast cell strain
[2] = tested on: carrageenan-induced paw swelling; assay: Carrageenan-induced paw swelling in rats; assay type: in vivo, Wistar rats; conditions: 100 mg/kg, sublingual intravenous injection
Experimental: Each group was administered by sublingual intravenous injection. Before the study, the normal volume of the right hind limb was measured by the capillary magnification method. To avoid errors, the measurement position should be fixed and performed by one person before and after administration. The average of the two measurements was taken as the normal volume of the right hind limb of the rats prior to administration. […] The inter-group t-test was performed by the difference percentage (swelling rate) of the plantar volume before and after the inflammation induction, and the differences among the groups were compared.

parainfluenza virus [3] = assay type: in vivo, Kunming mice; conditions: mice infected with parainfluenza virus
Parainfluenza virus [4] = assay: Effect of drugs on viral cytopathic effect, effective antiviral rate (ER%); assay type: cell-based; conditions: Vero cells, 100TCID50, drug at maximum non-toxic concentration, 72 h, MTT
Influenza virus [5] = assay: as above; assay type: cell-based
Adenovirus (AdV) = assay: as above; assay type: cell-based; conditions: Vero cells, 100TCID50, drug at maximum non-toxic concentration, 72 h, MTT
Vero cells = assay: Cytotoxicity test of drugs on Vero cells (MTT); conditions: 72 h
parainfluenza virus [6] = assay type: in vivo, Kunming mice; conditions: […], 5 days
influenza virus [7] = assay type: in vivo, Kunming mice
[8] = tested on: Herpes simplex virus type 1 (HSV-1); assay: Effect of drugs on viral cytopathic effect, effective antiviral rate (ER%); assay type: cell-based; conditions: Vero cells, 100TCID50, drug at maximum non-toxic concentration, 72 h, MTT
[9] = tested on: respiratory syncytial virus (RSV); assay: as above; assay type: cell-based; conditions: Vero cells, 100TCID50, drug at maximum non-toxic concentration, 72 h, MTT
[10] = tested on: Coxsackievirus A16 (CoxA16); assay: as above; assay type: cell-based; conditions: Vero cells, 100TCID50, drug at maximum non-toxic concentration, 72 h, MTT
Coxsackievirus B3 (CVB3) = assay: as above; assay type: cell-based; conditions: Vero cells, 100TCID50, drug at maximum non-toxic concentration, 72 h, MTT
enterovirus 71 (EV71) = assay: as above; assay type: cell-based; conditions: Vero cells, 100TCID50, drug at maximum non-toxic concentration, 72 h, MTT
influenza virus [11] = assay type: in vivo, Kunming mice; conditions: lung suspension, mice infected with influenza virus, 5 days
[12] = tested on: fever induced by beer yeast; assay: Fever induced by beer yeast in rats; assay type: in vivo, Wistar rats; conditions: 100 mg/kg
[13] = tested on: epithelial cells of plantar sweat glands of rats; assay: Sweat secretion of rat paw (histomorphology observation method); assay type: in vivo, Wistar rats; conditions: 30 min after 35.0 mg/kg subcutaneous
Source text: After sweat glands activation in rats, besides the increase of sweat secretion, the morphology of the epithelial cells of the sweat glands changes accordingly. Under the optical microscope, the increase and enlargement of vacuoles in the epithelial cells of the sweat glands are observed. Under an electron microscope, the enlarged vacuoles appear to be due to swelling and rupture of mitochondria, enlargement of fusion and secretory vesicles in the epithelial cells of sweat glands. The secretory activity of sweat glands could be understood by observing the histomorphology of the epithelial cells of plantar sweat glands of rats. Three hundred Wistar rats, half male and half female, weighing 120-160 g. were taken in the study. […] Except for the pilocarpine solution given by subcutaneous injection, other groups were administered by gavage. One hour after the control group was given 0.5% carboxymethyl cellulose, 30 min after the positive drug group was given pilocarpine, and 1 h after the administration of forsythin, ginsenoside Rg3 and the panax ginseng-forsythia suspensa composition, the right hind limb was immediately cut off at the level of the ankle joint. […] Observations were made under an optical microscope for changes in the epithelial cells of the plantar sweat glands of rats in each group, mainly the incidence of vacuoles. The statistical processing was performed by X^2 test, and differences among the groups were compared. The above study was repeated for 3 times.

[14] = tested on: sweat secretion of rat paw; assay: Sweat secretion of rat paw (staining method); assay type: in vivo, Wistar rats; conditions: of 10 rats; 35.0 mg/kg subcutaneous
Source text: There are sweat glands on the plantar skin of rats, so the changes in sweat secretion can be observed by the purple reaction between the iodine-starch mixture and the sweat. Five hundred Wistar rats, half male and half female, weighing 120-150 g, were taken in the study. […] The rats were placed in a homemade rat-fixing bag to expose both hind limbs. The dirt on the right paw was gently scrubbed with a cotton swab dipped in absolute ethanol. Except for the pilocarpine solution, which was given by subcutaneous injection, other groups were administered by gavage. One hour after administration (30 min after administration in the pilocarpine group), the sweat secreted from the right paw of rats in each group was gently cleaned with a dry cotton swab before the study and during struggling. The right paw was coated with Wotan-[…] reagent A solution (dissolve 2 g of iodine in 100 mL of absolute ethanol) and then coated with Wotan-[…] reagent B solution (mix 50 g of soluble starch and 100 mL of Ricinus conununis oil well) after reagent A was fully absorbed. […] At the end of the test, a rank-sum test was used to analyze the differences among the groups.

[15] = 19.5 mg/kg/day by gavage, 5 days
[16] = mice infected with influenza virus, 19.5 mg/kg/day by gavage, 5 days

Structure (SMILES): COc1ccc(C2OCC3C(c4ccc(OC5OC(C(=O)O)C(O)C(O)C5O)c(O)c4)OCC23)cc1OC [9-Hydroxy-phillygenin glucuronide, 9-hydroxy phillygenin-8-O-β-D-glucuronide]
- Minimum effective concentration MEC (HCMV AD169 strain): 0.4 mg/L
- Maximum non-toxic concentration TD0 [1]: 40 mg/L

Structure (SMILES): COc1cc(C2OCC3C(c4ccc5c(c4)OCO5)OCC23)ccc1OC1OC(C(=O)O)C(O)C(O)C1O [33, 34-methylenedioxy phillygenin-8-O-β-D-glucuronide]
- Minimum effective concentration MEC (HCMV AD169 strain): 0.4 mg/L
- Maximum non-toxic concentration TD0 [1]: 40 mg/L

Structure (SMILES): COc1cc(C2OCC3C(c4ccc(OC5OC(C(=O)O)C(O)C(O)C5O)c(OC)c4)OCC23)ccc1O [33-Hydroxy-phillygenin glucuronide, 33-hydroxy phillygenin-8-O-β-D-glucuronide]
- Minimum effective concentration MEC (HCMV AD169 strain): 0.3 mg/L
- Maximum non-toxic concentration TD0 [1]: 30 mg/L

Structure (SMILES): CC(=O)Oc1ccccc1C(=O)O [Aspinn]
- Swelling rate (%) 15 min ([2]; 15 min after inflammation induction): 8.90±6.70^∗ %
- Swelling rate (%) 30 min ([2]; 30 min after inflammation induction): 15.6±12.2^∗ %
- Swelling rate (%) 60 min ([2]; 60 min after inflammation induction): 20.3±10.9^∗ %
- Swelling rate (%) 120 min ([2]; 120 min after inflammation induction): 21.6±12.1^∗∗ %
- Swelling rate (%) 180 min ([2]; 180 min after inflammation induction): 26.1±21.1^∗∗ %
- Swelling rate (%) 240 min ([2]; 240 min after inflammation induction): 26.1±16.3^∗∗ %
- Swelling rate (%) 300 min ([2]; 300 min after inflammation induction): 34.9±14.6^∗ %
- Swelling rate (%) 360 min ([2]; 360 min after inflammation induction): 31.9±12.2^∗ %

Structure (SMILES): Nc1nc(O)c2ncn(COC(CO)CO)c2n1 [Ganciclovir (GCV), Ganciclovir, reference compound]
- Minimum effective concentration MEC (HCMV AD169 strain): 10 mg/L
- Maximum non-toxic concentration TD0 ([1]; human): 10 mg/L

Structure (SMILES): CCOC(=O)C1=C[C@@H](OC(CC)CC)[C@H](NC(C)=O)[C@@H](N)C1 [Oseltamivir Phosphate, reference compound]
- Lung index (x̅ ±S) (parainfluenza virus [3]; [15]): 1.243±0.054
- Lung index Inhibitory rate (%) (parainfluenza virus [3]; [15]): 21.85%
- Lung index compared with the infection model group, in words (parainfluenza virus [3]; P < 0.05 or P < 0.01): decreased significantly
- Effective Antiviral Rates (ER%) Parainfluenza virus (Parainfluenza virus [4]): 94.52** %
- Effective Antiviral Rates (ER%) Influenza virus (Influenza virus [5]; Vero cells, 100TCID50, drug at maximum non-toxic concentration, 72 h, MTT): 81.76** %
- Effective Antiviral Rates (ER%) ADV (Adenovirus (AdV)): 10.31%
- Half toxic concentration (TC50) (Vero cells): 832 µg/mL
- Maximum non-toxic concentration (TC0) (Vero cells): 0.28 g/L
- Hemagglutinin titer (InX) (parainfluenza virus [6]; 19.5 mg/kg/day by gavage): 22.05±1.055
- Inhibitory rate (%) of hemagglutination titer (parainfluenza virus [6]; 19.5 mg/kg/day by gavage): 33.40%
- Lung index (x̅ ±S) (influenza virus [7]; [16]): 1.178±0.066
- Lung index Inhibitory rate (%) (influenza virus [7]; [16]): 19.84%
- Lung index compared with the infection model group, in words (influenza virus [7]; mouse, in vivo): decreased significantly
- Effective Antiviral Rates (ER%) HSV-I [8]: 66.56** %
- Effective Antiviral Rates (ER%) RSV [9]: 37.60%
- Effective Antiviral Rates (ER%) CoxA16 [10]: 2.95%
- Effective Antiviral Rates (ER%) CVB3 (Coxsackievirus B3 (CVB3)): 1.64%
- Effective Antiviral Rates (ER%) EV71 (enterovirus 71 (EV71)): 51.86%
- Hemagglutinin titer (InX) (influenza virus [11]; 19.5 mg/kg/day by gavage): 20.50±1.123
- Inhibitory rate (%) of hemagglutination titer (influenza virus [11]; 19.5 mg/kg/day by gavage): 36.73%

Structure (SMILES): CC(=O)Nc1ccc(O)cc1 [Paracetamol, reference compound]
- Body temperature change (%) (antipyretic percentage), time post-dose 1 h ([12]; 1 h post-dose): -2.07±0.54^∗∗ %
- Body temperature, time post-dose 1 h ([12]; 1 h post-dose): 38.66±0.59 °C
- Body temperature change (%) (antipyretic percentage), time post-dose 2 h ([12]; 2 h post-dose): -3.27±0.77^∗∗∗ %
- Body temperature, time post-dose 2 h ([12]; 2 h post-dose): 38.19±0.59 °C
- Body temperature change (%) (antipyretic percentage), time post-dose 3 h ([12]; 3 h post-dose): -3.80±1.43^∗∗∗ %
- Body temperature, time post-dose 3 h ([12]; 3 h post-dose): 37.98±0.19 °C
- Body temperature change (%) (antipyretic percentage), time post-dose 4 h ([12]; 4 h post-dose): -4.15±1.59^∗∗∗ %
- Body temperature, time post-dose 4 h ([12]; 4 h post-dose): 37.84±0.32 °C

Structure (SMILES): CC[C@@H]1C(=O)OC[C@@H]1Cc1cncn1C [Pilocarpine, reference compound]
- Number of vacuolar sweat glands (number) [13]: 57 number
- Vacuolation rate (%) [13]: 27.40^∗∗∗ %
- Number of animals with sweat spots of each grade at 1 min after application of solution B: grade + [14]: 1 animals
- Number of animals with sweat spots of each grade at 1 min after application of solution B: grade ++ [14]: 3 animals
- Number of animals with sweat spots of each grade at 1 min after application of solution B: grade +++ [14]: 1 animals
- Number of animals with sweat spots of each grade at 1 min after application of solution B: grade +++ (fifth grade column) [14]: 5 animals
- Number of animals with sweat spots of each grade at 1 min after application of solution B: grade - [14]: 0 animals
- Number of animals with sweat spots of each grade at 5 min after application of solution B: grade + [14]: 1 animals
- Number of animals with sweat spots of each grade at 5 min after application of solution B: grade ++ [14]: 2 animals
- Number of animals with sweat spots of each grade at 5 min after application of solution B: grade +++ [14]: 1 animals
- Number of animals with sweat spots of each grade at 5 min after application of solution B: grade +++ (fifth grade column) [14]: 6 animals
- Number of animals with sweat spots of each grade at 5 min after application of solution B: grade - [14]: 0 animals

Structure (SMILES): NC(=O)c1ncn([C@@H]2O[C@H](CO)[C@@H](O)[C@H]2O)n1 [Ribavirin, reference compound]
- Effective Antiviral Rates (ER%) Parainfluenza virus (Parainfluenza virus [4]): 91.56** %
- Effective Antiviral Rates (ER%) Influenza virus (Influenza virus [5]): 57.49** %
- Effective Antiviral Rates (ER%) ADV (Adenovirus (AdV)): 0.43%
- Hemagglutinin titer (InX) (parainfluenza virus [6]; 58.5 mg/kg/day by gavage): 23.22±1.091
- Inhibitory rate (%) of hemagglutination titer (parainfluenza virus [6]; 58.5 mg/kg/day by gavage): 29.86%
- Effective Antiviral Rates (ER%) HSV-I [8]: 62.92** %
- Effective Antiviral Rates (ER%) RSV [9]: 50.08* %
- Effective Antiviral Rates (ER%) CoxA16 [10]: 0.70%
- Effective Antiviral Rates (ER%) CVB3 (Coxsackievirus B3 (CVB3)): 13.44%
- Effective Antiviral Rates (ER%) EV71 (enterovirus 71 (EV71)): 4.25%
- Hemagglutinin titer (InX) (influenza virus [11]; 58.5 mg/kg/day by gavage): 21.91±1.050
- Inhibitory rate (%) of hemagglutination titer (influenza virus [11]; 58.5 mg/kg/day by gavage): 32.39%

Source: patent publication US20230338454A1, “FORSYTHIA SUSPENSA COMPONENT AND OPTIONAL PANAX GINSENG COMPONENT AND THE APPLICATION” (priority 2020, published 2023)
